Data as given in US20250346597A1, “CONDENSED HETEROCYCLIC COMPOUNDS AS INHIBITOR OF DIACYLGLYCEROL KINASES” (BEONE MEDICINES I GMBH, priority 2023, published 2025).
pIC50: −log10 of the molar value.

What was measured:
[1] = target: DGKα (Homo sapiens (Human), UniProt P23743); assay: Biochemical DGK IC50 assay (ADP-Glo, lipid micelle substrate), DGKα; conditions: full length DGKα […], ATP 140 μM, DAG 80 μM; also: full length DGKα 7.5 nM
Procedure, shortened: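 Luminescent ADP-Glo detection followed a 1 h room-temperature reaction of full-length DGKα on DAG/PS micelles, in HEPES buffer with 10 mM MgCl2, 0.01 mM CaCl2, 0.1 mM Na3VO4, BSA and Tween-20. IC50 derived from inhibition across increasing compound concentrations.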

[2] = target: DGKζ (Homo sapiens (Human), UniProt Q13574); assay: Biochemical DGK IC50 assay (ADP-Glo, lipid micelle substrate), DGKζ; conditions: full length DGKζ 0.5 nM, ATP 140 μM, DAG 80 μM
Chain of DGKζ (Q13574 other isoform, or with tags, fused parts or gaps): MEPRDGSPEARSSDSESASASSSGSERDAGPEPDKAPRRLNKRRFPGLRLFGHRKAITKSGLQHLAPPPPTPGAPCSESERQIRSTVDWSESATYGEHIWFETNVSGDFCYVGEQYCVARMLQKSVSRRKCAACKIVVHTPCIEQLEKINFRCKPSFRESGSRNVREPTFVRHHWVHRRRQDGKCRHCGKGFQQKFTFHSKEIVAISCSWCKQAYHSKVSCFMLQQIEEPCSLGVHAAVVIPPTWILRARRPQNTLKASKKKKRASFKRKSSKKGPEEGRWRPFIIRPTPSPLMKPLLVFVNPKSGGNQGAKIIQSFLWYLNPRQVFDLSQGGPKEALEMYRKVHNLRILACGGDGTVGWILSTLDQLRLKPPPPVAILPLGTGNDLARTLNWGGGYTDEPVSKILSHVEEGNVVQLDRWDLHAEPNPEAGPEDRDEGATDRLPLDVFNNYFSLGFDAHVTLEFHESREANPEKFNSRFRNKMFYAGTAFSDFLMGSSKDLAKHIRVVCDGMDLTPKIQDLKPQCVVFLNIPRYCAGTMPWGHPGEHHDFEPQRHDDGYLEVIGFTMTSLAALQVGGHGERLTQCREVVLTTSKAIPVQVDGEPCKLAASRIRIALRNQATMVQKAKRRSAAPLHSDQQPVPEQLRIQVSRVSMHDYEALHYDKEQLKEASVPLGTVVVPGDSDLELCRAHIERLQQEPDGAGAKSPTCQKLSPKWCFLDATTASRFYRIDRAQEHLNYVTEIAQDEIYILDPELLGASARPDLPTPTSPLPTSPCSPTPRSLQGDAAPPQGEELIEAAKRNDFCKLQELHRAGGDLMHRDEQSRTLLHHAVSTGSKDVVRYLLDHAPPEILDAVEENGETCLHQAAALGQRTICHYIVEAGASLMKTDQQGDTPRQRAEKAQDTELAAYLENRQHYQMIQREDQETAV
Procedure, shortened: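 ADP-Glo luminescence measured ADP made in a 1 h room-temperature reaction. The enzyme was Sf9-expressed, purified full-length human DGKζ, and the substrate was DAG/PS micelles. Assay buffer held 50 mM HEPES, 10 mM MgCl2, 0.01 mM CaCl2, 0.1 mM Na3VO4 and 0.01% BSA. IC50 was derived from activity inhibition over a compound concentration series.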

Chain of DGKα (P23743 whole entry): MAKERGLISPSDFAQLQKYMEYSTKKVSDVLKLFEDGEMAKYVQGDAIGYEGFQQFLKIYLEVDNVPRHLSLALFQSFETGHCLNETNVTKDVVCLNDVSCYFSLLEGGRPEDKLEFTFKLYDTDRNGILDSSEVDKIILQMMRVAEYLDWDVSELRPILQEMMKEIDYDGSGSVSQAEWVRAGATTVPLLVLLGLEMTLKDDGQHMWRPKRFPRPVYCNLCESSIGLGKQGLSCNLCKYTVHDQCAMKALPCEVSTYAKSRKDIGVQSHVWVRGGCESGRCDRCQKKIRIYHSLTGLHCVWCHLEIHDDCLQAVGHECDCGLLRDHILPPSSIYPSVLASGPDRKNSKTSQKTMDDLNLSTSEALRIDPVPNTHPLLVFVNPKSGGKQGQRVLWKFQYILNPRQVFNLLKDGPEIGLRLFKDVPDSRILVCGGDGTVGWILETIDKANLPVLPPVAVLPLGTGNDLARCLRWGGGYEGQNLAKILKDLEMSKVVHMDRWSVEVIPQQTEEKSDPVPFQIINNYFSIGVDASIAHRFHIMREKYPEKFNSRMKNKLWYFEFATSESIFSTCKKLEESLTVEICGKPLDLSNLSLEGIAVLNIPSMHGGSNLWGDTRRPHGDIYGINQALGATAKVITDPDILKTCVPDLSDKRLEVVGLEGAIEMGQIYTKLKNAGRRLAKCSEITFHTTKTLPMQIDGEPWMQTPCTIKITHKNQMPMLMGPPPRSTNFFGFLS

pIC50 [1]	pIC50 [2]	SMILES
6.46	6.82	CC[C@H]1CN(C(C)c2ccc(OC)nc2)[C@H](CC)CN1c1cc(=O)n(C)c2cn(CC#N)nc12 (stereo partly drawn) [Compound A41, 2-(7-((2S,5R)-2,5-diethyl-4-(1-(6-methoxypyridin-3-yl)ethyl)piperazin-1-yl)-4-methyl-5-oxo-4,5-dihydro-2H-pyrazolo[4,3-b]pyridin-2-yl)acetonitrile]
6.15	7.08	CC[C@H]1CN(C(C)c2ccc(C(F)(F)F)c(C)n2)[C@H](CC)CN1c1cc(=O)n(C)c2cn(CC#N)nc12 (stereo partly drawn) [Compound A50, 2-(7-((2S,5R)-2,5-diethyl-4-(1-(6-methyl-5-(trifluoromethyl)pyridin-2-yl)ethyl)piperazin-1-yl)-4-methyl-5-oxo-4,5-dihydro-2H-pyrazolo[4,3-b]pyridin-2-yl)acetonitrile]
6.93	7.00	CC[C@H]1CN(C(C)c2ccc(C3CC3)cn2)[C@H](CC)CN1c1cc(=O)n(C)c2cn(CC#N)nc12 (stereo partly drawn) [Compound A52, 2-(7-((2S,5R)-4-(1-(5-cyclopropylpyridin-2-yl)ethyl)-2,5-diethylpiperazin-1-yl)-4-methyl-5-oxo-4,5-dihydro-2H-pyrazolo[4,3-b]pyridin-2-yl)acetonitrile]
5.63	6.19	CC[C@H]1CN(C(C)c2ccc(OC)c(C)n2)[C@H](CC)CN1c1cc(=O)n(C)c2cn(CC#N)nc12 (stereo partly drawn) [Compound A55, 2-(7-((2S,5R)-2,5-diethyl-4-(1-(5-methoxy-6-methylpyridin-2-yl)ethyl)piperazin-1-yl)-4-methyl-5-oxo-4,5-dihydro-2H-pyrazolo[4,3-b]pyridin-2-yl)acetonitrile]
5.59	6.57	CC[C@H]1CN(C(C)c2ccc(C)c(COC)n2)[C@H](CC)CN1c1cc(=O)n(C)c2cn(CC#N)nc12 (stereo partly drawn) [Compound A56, 2-(7-((2S,5R)-2,5-diethyl-4-(1-(6-(methoxymethyl)-5-methylpyridin-2-yl)ethyl)piperazin-1-yl)-4-methyl-5-oxo-4,5-dihydro-2H-pyrazolo[4,3-b]pyridin-2-yl)acetonitrile]
4.84	7.29	CC[C@H]1CN(C(C)c2ncc(C3CC3)cc2C)[C@H](CC)CN1c1cc(=O)n(C)c2cn(CC#N)nc12 (stereo partly drawn) [Compound A57, 2-(7-((2S,5R)-4-(1-(5-cyclopropyl-3-methylpyridin-2-yl)ethyl)-2,5-diethylpiperazin-1-yl)-4-methyl-5-oxo-4,5-dihydro-2H-pyrazolo[4,3-b]pyridin-2-yl)acetonitrile]
6.86	6.27	CC[C@H]1CN(C(C)c2ccc(OC)cn2)[C@H](CC)CN1c1cc(=O)n(C)c2cn(CC#N)nc12 (stereo partly drawn) [Compound A59, 2-(7-((2S,5R)-2,5-diethyl-4-(1-(5-methoxypyridin-2-yl)ethyl)piperazin-1-yl)-4methyl-5-oxo-4,5-dihydro-2H-pyrazolo[4,3-b]pyridin-2-yl)acetonitrile]
4.42	6.19	CC[C@H]1CN(C(C)c2ncc(OC)cc2C)[C@H](CC)CN1c1cc(=O)n(C)c2cn(CC#N)nc12 (stereo partly drawn) [Compound A60, 2-(7-((2S,5R)-2,5-diethyl-4-(1-(5-methoxy-3-methylpyridin-2-yl)ethyl)piperazin-1-yl)-4-methyl-5-oxo-4,5-dihydro-2H-pyrazolo[4,3-b]pyridin-2-yl)acetonitrile]
6.61	7.15	CC[C@H]1CN(C(C)c2ccc3c(c2)CCO3)[C@H](CC)CN1c1cc(=O)n(C)c2cn(CC#N)nc12 (stereo partly drawn) [Compound A67, 2-(7-((2S,5R)-4-(1-(2,3-dihydrobenzofuran-5-yl)ethyl)-2,5-diethylpiperazin-1-yl)-4-methyl-5-oxo-4,5-dihydro-2H-pyrazolo[4,3-b]pyridin-2-yl)acetonitrile]
5.32	7.70	CC(c1ccc2c(c1F)OC(C)(C)O2)N1C[C@H](C)N(c2cc(=O)n(C)c3cn(CC#N)nc23)C[C@H]1C (stereo partly drawn) [Compound A69, 2-(7-((2S,5R)-4-(1-(4-fluoro-2,2-dimethylbenzo[d][1,3]dioxol-5-yl)ethyl)-2,5-dimethylpiperazin-1-yl)-4-methyl-5-oxo-4,5-dihydro-2H-pyrazolo[4,3-b]pyridin-2-yl)acetonitrile]
5.74	8.40	CC[C@H]1CN(C(C)c2ccc3c(c2F)OC(C)(C)O3)[C@H](CC)CN1c1cc(=O)n(C)c2cn(CC#N)nc12 (stereo partly drawn) [Compound A71, 2-(7-((2S,5R)-2,5-diethyl-4-(1-(4-fluoro-2,2-dimethylbenzo[d][1,3]dioxol-5-yl)ethyl)piperazin-1-yl)-4-methyl-5-oxo-4,5-dihydro-2H-pyrazolo[4,3-b]pyridin-2-yl)acetonitrile]
7.57	7.48	CC[C@H]1CN(C(C)c2ccc3c(n2)CCC3)[C@H](CC)CN1c1cc(=O)n(C)c2cn(CC#N)nc12 (stereo partly drawn) [Compound A72, 2-(7-((2S,5R)-4-(1-(6,7-dihydro-5H-cyclopenta[b]pyridin-2-yl)ethyl)-2,5-diethylpiperazin-1-yl)-4-methyl-5-oxo-4,5-dihydro-2H-pyrazolo[4,3-b]pyridin-2-yl)acetonitrile]
7.04	6.90	CC[C@H]1CN(C(C)c2ccc3c(n2)CCO3)[C@H](CC)CN1c1cc(=O)n(C)c2cn(CC#N)nc12 (stereo partly drawn) [Compound A73, 2-(7-((2S,5R)-4-(1-(2,3-dihydrofuro[3,2-b]pyridin-5-yl)ethyl)-2,5-diethylpiperazin-1-yl)-4-methyl-5-oxo-4,5-dihydro-2H-pyrazolo[4,3-b]pyridin-2-yl)acetonitrile]

Further lines, the compound ahead of its results:

SMILES	pIC50 [1]	pIC50 [2]
CC[C@H]1CN(C(C)c2ncc(C)cc2C)[C@H](CC)CN1c1cc(=O)n(C)c2cn(CC#N)nc12 (stereo partly drawn) [Compound A53, 2-(7-((2S,5R)-4-(1-(3,5-dimethylpyridin-2-yl)ethyl)-2,5-diethylpiperazin-1-yl)-4-methyl-5-oxo-4,5-dihydro-2H-pyrazolo[4,3-b]pyridin-2-yl)acetonitrile]	5.35	6.48
CC[C@H]1CN(C(C)c2ccc(C3CC3)c(C)n2)[C@H](CC)CN1c1cc(=O)n(C)c2cn(CC#N)nc12 (stereo partly drawn) [Compound A58, 2-(7-((2S,5R)-4-(1-(5-cyclopropyl-6-methylpyridin-2-yl)ethyl)-2,5-diethylpiperazin-1-yl)-4-methyl-5-oxo-4,5-dihydro-2H-pyrazolo[4,3-b]pyridin-2-yl)acetonitrile]	6.31	7.03
CC[C@H]1CN(C(C)c2ccc(COC)cn2)[C@H](CC)CN1c1cc(=O)n(C)c2cn(CC#N)nc12 (stereo partly drawn) [Compound A61, 2-(7-((2S,5R)-2,5-diethyl-4-(1-(5-(methoxymethyl)pyridin-2-yl)ethyl)piperazin-1-yl)-4-methyl-5-oxo-4,5-dihydro-2H-pyrazolo[4,3-b]pyridin-2-yl)acetonitrile]	6.84	6.53
CC[C@H]1CN(C(C)c2ccc(C3CC3)c(F)n2)[C@H](CC)CN1c1cc(=O)n(C)c2cn(CC#N)nc12 (stereo partly drawn) [Compound A62, 2-(7-((2S,5R)-4-(1-(5-cyclopropyl-6-fluoropyridin-2-yl)ethyl)-2,5-diethylpiperazin-1-yl)-4-methyl-5-oxo-4,5-dihydro-2H-pyrazolo[4,3-b]pyridin-2-yl)acetonitrile]	7.68	6.81
CC[C@H]1CN(C(C)c2cc(F)c(C3CC3)cn2)[C@H](CC)CN1c1cc(=O)n(C)c2cn(CC#N)nc12 (stereo partly drawn) [Compound A63, 2-(7-((2S,5R)-4-(1-(5-cyclopropyl-4-fluoropyridin-2-yl)ethyl)-2,5-diethylpiperazin-1-yl)-4-methyl-5-oxo-4,5-dihydro-2H-pyrazolo[4,3-b]pyridin-2-yl)acetonitrile]	6.78	7.68
CC[C@H]1CN(C(C)c2cc3c(cc2F)OC(C)(C)CO3)[C@H](CC)CN1c1cc(=O)n(C)c2cn(CC#N)nc12 (stereo partly drawn) [Compound A64, 2-(7-((2S,5R)-2,5-diethyl-4-(1-(7-fluoro-2,2-dimethyl-2,3-dihydrobenzo[b][1,4]dioxin-6-yl)ethyl)piperazin-1-yl)-4-methyl-5-oxo-4,5-dihydro-2H-pyrazolo[4,3-b]pyridin-2-yl)acetonitrile]	5.98	8.11
CC[C@H]1CN(C(C)c2ccc3c(c2)CCC3)[C@H](CC)CN1c1cc(=O)n(C)c2cn(CC#N)nc12 (stereo partly drawn) [Compound A65, 2-(7-((2S,5R)-4-(1-(2,3-dihydro-1H-inden-5-yl)ethyl)-2,5-diethylpiperazin-1-yl)-4-methyl-5-oxo-4,5-dihydro-2H-pyrazolo[4,3-b]pyridin-2-yl)acetonitrile]	6.53	7.18
CC[C@H]1CN(C(C)c2ccc3c(c2)CCC3(C)C)[C@H](CC)CN1c1cc(=O)n(C)c2cn(CC#N)nc12 (stereo partly drawn) [Compound A66, 2-(7-((2S,5R)-4-(1-(1,1-dimethyl-2,3-dihydro-1H-inden-5-yl)ethyl)-2,5-diethylpiperazin-1-yl)-4-methyl-5-oxo-4,5-dihydro-2H-pyrazolo[4,3-b]pyridin-2-yl)acetonitrile]	5.65	7.02
CC(c1ccc2c(c1)OC(C)(C)O2)N1C[C@H](C)N(c2cc(=O)n(C)c3cn(CC#N)nc23)C[C@H]1C (stereo partly drawn) [Compound A70, 2-(7-((2S,5R)-4-(1-(2,2-dimethylbenzo[d][1,3]dioxol-5-yl)ethyl)-2,5-dimethylpiperazin-1-yl)-4-methyl-5-oxo-4,5-dihydro-2H-pyrazolo[4,3-b]pyridin-2-yl)acetonitrile]	4.91	7.51
CC[C@H]1CN(C(C)c2cnc3c(c2)CCO3)[C@H](CC)CN1c1cc(=O)n(C)c2cn(CC#N)nc12 (stereo partly drawn) [Compound A74, 2-(7-((2S,5R)-4-(1-(2,3-dihydrofuro[2,3-b]pyridin-5-yl)ethyl)-2,5-diethylpiperazin-1-yl)-4-methyl-5-oxo-4,5-dihydro-2H-pyrazolo[4,3-b]pyridin-2-yl)acetonitrile]	5.24	6.32
